One may read the IC50 as the concentration that inhibits the measured activity by half.

Data on 24 compounds can be found in US11987588B2, “Modulators of the beta-3 adrenergic receptor useful for the treatment or prevention of heart failure and disorders related thereto” (Arena Pharmaceuticals, Inc., priority 2017, dated 2024).

For this assay, the target named is Beta-3 Adrenergic Receptor (Homo sapiens (Human), UniProt P13945). The assay can be described thus: Homogeneous Time-Resolved Fluorescence (HTRF) cAMP antagonist assay, IC50 determination. To be noted: CHO-K1 cells stably expressing recombinant receptor, isoproterenol at EC90. The format is cell-based. The procedure, abridged: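 CHO-K1 cells stably expressing the recombinant receptor were preincubated with compound (10-point, 5-fold dilutions; top final typically 10 or 100 μM) in PBS with 1 mM IBMX, then stimulated with isoproterenol at its EC90 for 1 h at room temperature. cAMP was read by HTRF against an on-plate standard curve.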
Sequence of Beta-3 Adrenergic Receptor (P13945 whole entry, species assumed): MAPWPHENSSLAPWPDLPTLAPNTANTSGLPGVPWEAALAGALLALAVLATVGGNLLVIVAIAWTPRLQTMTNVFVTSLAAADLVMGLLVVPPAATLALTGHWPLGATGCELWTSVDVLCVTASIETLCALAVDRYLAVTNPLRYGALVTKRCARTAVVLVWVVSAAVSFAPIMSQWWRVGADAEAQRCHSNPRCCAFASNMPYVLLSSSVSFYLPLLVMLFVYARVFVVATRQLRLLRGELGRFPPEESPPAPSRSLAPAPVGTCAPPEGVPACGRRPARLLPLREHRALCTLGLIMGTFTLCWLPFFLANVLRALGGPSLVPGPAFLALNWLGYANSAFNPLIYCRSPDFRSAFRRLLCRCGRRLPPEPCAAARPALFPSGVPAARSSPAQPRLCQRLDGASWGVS
(In general: In TR-FRET formats the signal depends on donor and acceptor labels being close together.)

As for `CNS(=O)(=O)c1cccc(OC[C@@H](O)CN[C@H]2COC3(CCN(S(=O)(=O)c4cnc5cn[nH]c5c4)CC3)C2)c1` [Compound 502, 3-((S)-3-((R)-8-(1H-pyrazolo[4,3-b]pyridin-6-ylsulfonyl)-1-oxa-8-azaspiro[4.5]decan-3-ylamino)-2-hydroxypropoxy)-N-methylbenzenesulfonamide], the 50% inhibitory concentration (IC50) turned out to be 18.9 nM. Consider `CNS(=O)(=O)c1cccc(OC[C@@H](O)CN[C@H]2COC3(CCN(S(=O)(=O)c4cnc5c(Cl)cn(C)c5c4)CC3)C2)c1` [Compound 527, 3-((S)-3-((R)-8-(3-chloro-1-methyl-1H-pyrrolo[3,2-b]pyridin-6-ylsulfonyl)-1-oxa-8-azaspiro[4.5]decan-3-ylamino)-2-hydroxypropoxy)-N-methylbenzenesulfonamide], for which the IC50 amounted to 9.03 nM. For the compound `CNS(=O)(=O)c1cccc(OC[C@@H](O)CN[C@H]2COC3(CCN(c4nc(C)cc(C)n4)CC3)C2)c1` [Compound 577, 3-((S)-3-((R)-8-(4,6-dimethylpyrimidin-2-yl)-1-oxa-8-azaspiro[4.5]decan-3-ylamino)-2-hydroxypropoxy)-N-methylbenzenesulfonamide], the IC50 was found to be 102 nM.

For `CNS(=O)(=O)c1cccc(OC[C@@H](O)CN[C@H]2COC3(CCN(S(=O)(=O)c4cc5c(nc4N)OCCN5C)CC3)C2)c1` [Compound 455, 3-((S)-3-((R)-8-(6-amino-1-methyl-2,3-dihydro-1H-pyrido[2,3-b][1,4]oxazin-7-ylsulfonyl)-1-oxa-8-azaspiro[4.5]decan-3-ylamino)-2-hydroxypropoxy)-N-methylbenzenesulfonamide], the IC50 is 25.1 nM.

`CCn1cc(S(=O)(=O)N2CCC3(CC2)C[C@@H](NC[C@H](O)COc2cccc(S(N)(=O)=O)c2)CO3)c(=O)c2ccccc21` [Compound 550, 3-((S)-3-((R)-8-(1-ethyl-4-oxo-1,4-dihydroquinolin-3-ylsulfonyl)-1-oxa-8-azaspiro[4.5]decan-3-ylamino)-2-hydroxypropoxy)benzenesulfonamide]: the IC50 was 40.3 nM. The figure for `CNS(=O)(=O)c1cccc(OC[C@@H](O)CNC2COC3(CCN(S(=O)(=O)c4cccc(-c5ccc(CNCCOC)cc5)c4)CC3)C2)c1` (stereo partly drawn) [Compound 340, 3-((2S)-2-hydroxy-3-(8-(4′-((2-methoxyethylamino)methyl)biphenyl-3-ylsulfonyl)-1-oxa-8-azaspiro[4.5]decan-3-ylamino)propoxy)-N-methylbenzenesulfonamide] is 30.9 nM; for `CNS(=O)(=O)c1cccc(OC[C@@H](O)CN[C@@H]2COC3(CCN(S(=O)(=O)c4cccc(-c5cc[nH]n5)c4)CC3)C2)c1` [Compound 295, 3-((S)-3-((S)-8-(3-(1H-pyrazol-3-yl)phenylsulfonyl)-1-oxa-8-azaspiro[4.5]decan-3-ylamino)-2-hydroxypropoxy)-N-methylbenzenesulfonamide] it is 7.22 nM.

For `CNS(=O)(=O)c1cccc(OC[C@@H](O)CNC2COC3(CCN(S(=O)(=O)c4cccc(-c5ccc(CN6CCSC6)cc5)c4)CC3)C2)c1` (stereo partly drawn) [Compound 346, 3-((2S)-2-hydroxy-3-(8-(4′-(thiazolidin-3-ylmethyl)biphenyl-3-ylsulfonyl)-1-oxa-8-azaspiro[4.5]decan-3-ylamino)propoxy)-N-methylbenzenesulfonamide], the IC50 was 126 nM. As to `CNS(=O)(=O)c1cccc(OC[C@@H](O)CN[C@@H]2COC3(CCN(S(=O)(=O)c4cccc(-c5ccc(CNCC(C)C)cc5)c4)CC3)C2)c1` [Compound 360, 3-((S)-2-hydroxy-3-((S)-8-(4′-((isobutylamino)methyl)biphenyl-3-ylsulfonyl)-1-oxa-8-azaspiro[4.5]decan-3-ylamino)propoxy)-N-methylbenzenesulfonamide], the IC50 is 20.5 nM. With `CNS(=O)(=O)c1cccc(OC[C@@H](O)CN[C@H]2COC3(CCN(S(=O)(=O)c4cnc5c(c4)CCCC5)CC3)C2)c1` [Compound 479, 3-((S)-2-hydroxy-3-((R)-8-(5,6,7,8-tetrahydroquinolin-3-ylsulfonyl)-1-oxa-8-azaspiro[4.5]decan-3-ylamino)propoxy)-N-methylbenzenesulfonamide], the IC50 turned out to be 32.1 nM.

In the case of `CONS(=O)(=O)c1cccc(OC[C@@H](O)CN[C@H]2COC3(CCN(S(=O)(=O)c4cnc5c(c4)N(C)CCO5)CC3)C2)c1` [Compound 451, 3-((S)-2-hydroxy-3-((R)-8-(1-methyl-2,3-dihydro-1H-pyrido[2,3-b][1,4]oxazin-7-ylsulfonyl)-1-oxa-8-azaspiro[4.5]decan-3-ylamino)propoxy)-N-methoxybenzenesulfonamide], the IC50 came out at 2130 nM. As to `CNS(=O)(=O)c1cccc(OC[C@@H](O)CN[C@H]2COC3(CCN(S(=O)(=O)c4cc(-c5ccc(CN)cc5)ccc4OC(F)(F)F)CC3)C2)c1` [Compound 416, 3-((S)-3-((R)-8-(4′-(aminomethyl)-4-(trifluoromethoxy)biphenyl-3-ylsulfonyl)-1-oxa-8-azaspiro[4.5]decan-3-ylamino)-2-hydroxypropoxy)-N-methylbenzenesulfonamide], the IC50 worked out at 262 nM. Consider `CNS(=O)(=O)c1cccc(OC[C@@H](O)CNC2COC3(CCN(S(=O)(=O)c4cccc(C)c4F)CC3)C2)c1` (stereo partly drawn) [Compound 160, 3-((2S)-3-(8-(2-fluoro-3-methylphenylsulfonyl)-1-oxa-8-azaspiro[4.5]decan-3-ylamino)-2-hydroxypropoxy)-N-methylbenzenesulfonamide], for which the IC50 was 14.6 nM. In the case of `CNS(=O)(=O)c1cccc(OC[C@@H](O)CNC2COC3(CCN(S(=O)(=O)c4cccc(-c5cccnc5)c4)CC3)C2)c1` (stereo partly drawn) [Compound 88, 3-((2S)-2-hydroxy-3-(8-(3-(pyridin-3-yl)phenylsulfonyl)-1-oxa-8-azaspiro[4.5]decan-3-ylamino)propoxy)-N-methylbenzenesulfonamide] it was 9.82 nM; in that of `CNS(=O)(=O)c1cccc(OC[C@@H](O)CNC2COC3(CCN(S(=O)(=O)c4ccc(-c5cccnc5)cc4)CC3)C2)c1` (stereo partly drawn) [Compound 407, 3-((2S)-2-hydroxy-3-(8-(4-(pyridin-3-yl)phenylsulfonyl)-1-oxa-8-azaspiro[4.5]decan-3-ylamino)propoxy)-N-methylbenzenesulfonamide], 23 nM. For `CNS(=O)(=O)c1cccc(OC[C@@H](O)CN[C@H]2COC3(CCN(S(=O)(=O)c4ccc5[nH]c(C)nc5c4)CC3)C2)c1` [Compound 501, 3-((S)-2-hydroxy-3-((R)-8-(2-methyl-1H-benzo[d]imidazol-5-ylsulfonyl)-1-oxa-8-azaspiro[4.5]decan-3-ylamino)propoxy)-N-methylbenzenesulfonamide], the IC50 worked out at 22.9 nM. Regarding `CNS(=O)(=O)c1cccc(OC[C@@H](O)CNC2COC3(CCN(S(=O)(=O)c4cccc5ccccc45)CC3)C2)c1` (stereo partly drawn) [Compound 55, 3-((2S)-2-hydroxy-3-(8-(naphthalen-1-ylsulfonyl)-1-oxa-8-azaspiro[4.5]decan-3-ylamino)propoxy)-N-methylbenzenesulfonamide], the IC50 is 18 nM. For `CNS(=O)(=O)c1cccc(OC[C@@H](O)CNC2COC3(CCN(S(=O)(=O)c4cccc(Cl)c4F)CC3)C2)c1` (stereo partly drawn) [Compound 139, 3-((2S)-3-(8-(3-chloro-2-fluorophenylsulfonyl)-1-oxa-8-azaspiro[4.5]decan-3-ylamino)-2-hydroxypropoxy)-N-methylbenzenesulfonamide], the IC50 worked out at 10.2 nM. On to `CNS(=O)(=O)c1cccc(OC[C@@H](O)CN[C@@H]2COC3(CCN(S(=O)(=O)c4cc(C)ccc4F)CC3)C2)c1` [Compound 268, 3-((S)-3-((S)-8-(2-fluoro-5-methylphenylsulfonyl)-1-oxa-8-azaspiro[4.5]decan-3-ylamino)-2-hydroxypropoxy)-N-methylbenzenesulfonamide], for which the IC50 amounted to 12.3 nM.

Turning to `CN1CCOc2ncc(S(=O)(=O)N3CCC4(CC3)C[C@@H](NC[C@H](O)COc3cccc(S(=O)(=O)NCCF)c3)CO4)cc21` [Compound 457, N-(2-fluoroethyl)-3-((S)-2-hydroxy-3-((R)-8-(1-methyl-2,3-dihydro-1H-pyrido[2,3-b][1,4]oxazin-7-ylsulfonyl)-1-oxa-8-azaspiro[4.5]decan-3-ylamino)propoxy)benzenesulfonamide], the IC50 was determined as 29.6 nM. On to `CNS(=O)(=O)c1cccc(OC[C@@H](O)CNC2COC3(CCN(S(=O)(=O)c4ccc(OC)nc4)CC3)C2)c1` (stereo partly drawn) [Compound 396, 3-((2S)-2-hydroxy-3-(8-(6-methoxypyridin-3-ylsulfonyl)-1-oxa-8-azaspiro[4.5]decan-3-ylamino)propoxy)-N-methylbenzenesulfonamide], for which the IC50 is 30.3 nM. Take `C[C@@H](CO)NS(=O)(=O)c1cccc(OC[C@@H](O)CN[C@H]2COC3(CCN(S(=O)(=O)c4cnc5c(c4)N(C)CCO5)CC3)C2)c1` [Compound 432, 3-((S)-2-hydroxy-3-((R)-8-(1-methyl-2,3-dihydro-1H-pyrido[2,3-b][1,4]oxazin-7-ylsulfonyl)-1-oxa-8-azaspiro[4.5]decan-3-ylamino)propoxy)-N—((S)-1-hydroxypropan-2-yl)benzenesulfonamide]: the IC50 was 196 nM. With `CN(C)CCCNS(=O)(=O)c1cccc(OC[C@@H](O)CNC2COC3(CCN(S(=O)(=O)c4ccc5ccccc5c4)CC3)C2)c1` (stereo partly drawn) [Compound 317, N-(3-(dimethylamino)propyl)-3-((2S)-2-hydroxy-3-(8-(naphthalen-2-ylsulfonyl)-1-oxa-8-azaspiro[4.5]decan-3-ylamino)propoxy)benzenesulfonamide], the IC50 was 1010 nM. In the case of `CNS(=O)(=O)c1cccc(OC[C@@H](O)CNC2COC3(CCN(S(=O)(=O)c4ccccc4S(C)(=O)=O)CC3)C2)c1` (stereo partly drawn) [Compound 43, 3-((2S)-2-hydroxy-3-(8-(2-(methylsulfonyl)phenylsulfonyl)-1-oxa-8-azaspiro[4.5]decan-3-ylamino)propoxy)-N-methylbenzenesulfonamide] it was 74 nM.
